Data reported in PubChem BioAssay (NCI).
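The concentration for 50% growth inhibition is given as GI50. Definition used: TGI = concentration required for complete inhibition of growth.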

Key:
Test in all cases: DTP human tumour cell line panel, 384-well format
[1] = system: IGROV1 ovarian
[2] = system: MDA-MB-435 melanoma
[3] = system: HOP-92 NSCLC
[4] = system: NCI-H522 lung
[5] = system: UACC-62 melanoma
[6] = system: COLO 205 colon
[7] = system: PC-3 prostate
[8] = system: HCT-116 colon
[9] = system: OVCAR-5 ovarian
[10] = system: OVCAR-4 ovarian
[11] = system: RPMI-8226 leukemia
[12] = system: SNB-19 CNS
[13] = system: SF-539 CNS
[14] = system: HCT-15 colon
[15] = system: DU-145 prostate
[16] = system: SR leukemia
[17] = system: SF-295 CNS
[18] = system: SK-OV-3 ovarian
[19] = system: EKVX NSCLC
[20] = system: A498 renal
[21] = system: NCI-H460 NSCLC
[22] = system: HCC-2998 colon
[23] = system: SNB-75 CNS
[24] = system: T-47D breast
[25] = system: MALME-3M melanoma
[26] = system: A549 NSCLC
[27] = system: SW-620 colon
[28] = system: ACHN renal
[29] = system: SK-MEL-5 melanoma

Work on `Cc1ccc(NC(=O)c2ccc(CN3CCN(C)CC3)cc2)cc1Nc1nccc(-c2cccnc2)n1` yielded a GI50 [1] of 12.5 µM, a TGI [1] of 25.2 µM and a GI50 [2] of 16.7 µM. For the same compound, the TGI [2] was 31.4 µM, the GI50 [3] was 13.7 µM and the TGI [3] was 28.1 µM. The GI50 [4] was 12 µM, the TGI [4] was 24.7 µM and the GI50 [5] was 13.6 µM. It also gave a TGI [5] of 26.7 µM, a GI50 [6] of 16.3 µM and a TGI [6] of 29.9 µM. For the same compound, the GI50 [7] was 16 µM, the TGI [7] was 31.1 µM and the GI50 [8] was 6.25 µM. The TGI [8] was 18.8 µM, the GI50 [9] was 13.4 µM and the TGI [9] was 36.8 µM. The GI50 [10] was 16.2 µM, the TGI [10] was 30.7 µM and the GI50 [11] was 11.2 µM. The TGI [11] was 23.3 µM, the GI50 [12] was 22.1 µM and the TGI [12] was 49.3 µM. For the same compound, the GI50 [13] was 9.13 µM, the TGI [13] was 21.4 µM and the GI50 [14] was 2.48 µM. The TGI [14] was 5.73 µM, the GI50 [15] was 17.1 µM and the TGI [15] was 31.1 µM. It also gave a GI50 [16] of 8.83 µM, a TGI [16] of 19.6 µM and a GI50 [17] of 14.2 µM. For the same compound, the TGI [17] was 27.8 µM, the GI50 [18] was 19.7 µM and the TGI [18] was 37.1 µM. The GI50 [19] was 15.5 µM, the TGI [19] was 29.8 µM and the GI50 [20] was 6.8 µM. For the same compound, the TGI [20] was 19 µM, the GI50 [21] was 16.6 µM and the TGI [21] was 30.9 µM. The GI50 [22] was 5.93 µM, the TGI [22] was 17.5 µM and the GI50 [23] was 21.7 µM. It also gave a TGI [23] of 36.2 µM, a GI50 [24] of 6.92 µM and a TGI [24] of 20 µM. For the same compound, the GI50 [25] was 2.58 µM, the TGI [25] was 5.42 µM and the GI50 [26] was 16.5 µM. The TGI [26] was 35.1 µM, the GI50 [27] was 20.6 µM and the TGI [27] was 41.2 µM. The GI50 [28] was 15.4 µM, the TGI [28] was 29 µM and the GI50 [29] was 10.4 µM.
